Laboratory results reported in ChEMBL document CHEMBL1145468, “Serum differentially alters the antifungal properties of echinocandin drugs” (Antimicrob Agents Chemother, 2007).
Converted amounts (≈) assume the structure as drawn. *1 amine or outer side, *2 acyl side, *3 side chain or, on linkers, in order; H or OH if unused. Where a SMILES comes first, the peptide text is derived from it. Bridges are numbered along the chain shown (N, C = ends). [ ]: non-standard residue; d: D form. The star is where a group is joined. hTyr(3S-OH,4S-OH,3'-OSO3H) = N[C@H](C(=O)O)[C@H](O)[C@@H](O)c1ccc(O)c(OS(=O)(=O)O)c1; pTerphenylCO(4''-OnC5H11) = CCCCCOc1ccc(-c2ccc(-c3ccc(C(=O)*)cc3)cc2)cc1; Orn(4R-OH,5R-OH) = O=C([C@H](C[C@@H](O)[C@@H](O)N[*:3])N[*:1])[*:2]; hTyr(3S-OH,4S-OH) = N[C@H](C(=O)O)[C@H](O)[C@@H](O)c1ccc(O)cc1; Pro(3S-OH,4S-Me) = C[C@H]1CN[C@H](C(=O)O)[C@H]1O; X1 = CCCCCOc1ccc(-c2cc(-c3ccc(C(=O)*)cc3)no2)cc1; Gln(3R-OH) = NC(=O)C[C@@H](O)[C@H](N)C(=O)O; Hyp = O=C(O)[C@@H]1C[C@@H](O)CN1

Assays:
Glucan synthase [1] = biological target: T1, Glucan synthase (Candida albicans, UniProt O13423); assay: Inhibition of glucan synthase in Candida albicans ATCC 90028
Glucan synthase [2] = biological target: T1, Glucan synthase; assay: Inhibition of glucan synthase in Candida albicans SC5314 in presence of 50% human serum
[3] = Inhibition of glucan synthase in Aspergillus fumigatus ATCC 13073 in presence of 10% human serum
Glucan synthase [4] = biological target: T1, Glucan synthase; assay: Inhibition of glucan synthase in Candida albicans SC5314 in presence of 20% human serum
Aspergillus niger = assay: Ratio of MIC for Aspergillus flavus to MIC for Aspergillus niger in presence of 50% human serum; type: functional
Glucan synthase [5] = biological target: T1, Glucan synthase; assay: Inhibition of glucan synthase in Candida albicans ATCC 90028 in presence of 50% human serum
[6] = Inhibition of glucan synthase in Aspergillus fumigatus R21 in presence of 10% human serum
[7] = Inhibition of glucan synthase in Aspergillus fumigatus MF5668 in presence of 50% human serum
[8] = Inhibition of glucan synthase in Aspergillus fumigatus MF5668
Aspergillus flavus = assay: Ratio of MIC for Aspergillus flavus to MIC for Aspergillus flavus in presence of 50% human serum; type: functional
Glucan synthase [9] = biological target: T1, Glucan synthase; assay: Inhibition of glucan synthase in Candida albicans ATCC 36082
[10] = Inhibition of glucan synthase in Aspergillus fumigatus R21 in presence of 20% human serum
Glucan synthase [11] = biological target: T1, Glucan synthase; assay: Inhibition of glucan synthase in Candida albicans ATCC 90028 in presence of 10% human serum
Aspergillus fumigatus = assay: Ratio of MIC for Aspergillus fumigatus to MIC for Aspergillus fumigatus in presence of 50% human serum; type: functional
Glucan synthase [12] = biological target: T1, Glucan synthase; assay: Inhibition of glucan synthase in Candida albicans 36082 assessed as incorporation of [3H]uridine diphosphoglucose in presence of 20% serum
Glucan synthase [13] = biological target: T1, Glucan synthase; assay: Inhibition of glucan synthase in Candida albicans 36082 assessed as incorporation of [3H]uridine diphosphoglucose in presence of 10% serum
[14] = Inhibition of glucan synthase in Aspergillus fumigatus ATCC 13073
Glucan synthase [15] = biological target: T1, Glucan synthase; assay: Inhibition of glucan synthase in Candida albicans ATCC 36082 in presence of 10% human serum
Aspergillus terreus = assay: Ratio of MIC for Aspergillus flavus to MIC for Aspergillus terreus in presence of 50% human serum; type: functional
Pichia kudriavzevii = assay: Ratio of MIC for Candida krusei to MIC for Candida krusei in presence of 50% human serum; type: functional
[16] = Inhibition of glucan synthase in Aspergillus fumigatus ATCC 13073 in presence of 20% human serum
Candida albicans [17] = assay: Antifungal activity against Candida albicans 36082 infected BALB/c mouse assessed as fungal kidney burden after 14 days; type: functional; conditions: 336 h
[18] = Inhibition of glucan synthase in Aspergillus fumigatus MF5668 in presence of 20% human serum
Candida tropicalis = assay: Ratio of MIC for Candida tropicalis to MIC for Candida tropicalis in presence of 50% human serum; type: functional
Glucan synthase [19] = biological target: T1, Glucan synthase; assay: Inhibition of glucan synthase in Candida albicans SC5314 in presence of 10% human serum
[20] = Inhibition of glucan synthase in Aspergillus fumigatus R21
[21] = Inhibition of glucan synthase in Aspergillus fumigatus MF5668 in presence of 10% human serum
Candida albicans [22] = assay: Ratio of MIC for Candida albicans to MIC for Candida albicans in presence of 50% human serum; type: functional
[23] = Inhibition of glucan synthase in Aspergillus fumigatus R21 in presence of 50% human serum
Glucan synthase [24] = biological target: T1, Glucan synthase; assay: Inhibition of glucan synthase in Candida albicans 36082 assessed as incorporation of [3H]uridine diphosphoglucose
Nakaseomyces glabratus = assay: Ratio of MIC for Candida glabrata to MIC for Candida glabrata in presence of 50% mouse serum; type: functional
Glucan synthase [25] = biological target: T1, Glucan synthase; assay: Inhibition of glucan synthase in Candida albicans SC5314
Glucan synthase [26] = biological target: T1, Glucan synthase; assay: Inhibition of glucan synthase in Candida albicans ATCC 36082 in presence of 20% human serum
Glucan synthase [27] = biological target: T1, Glucan synthase; assay: Inhibition of glucan synthase in Candida albicans ATCC 90028 in presence of 20% human serum
Glucan synthase [28] = biological target: T1, Glucan synthase; assay: Inhibition of glucan synthase in Candida albicans 36082 assessed as incorporation of [3H]uridine diphosphoglucose in presence of 50% serum
Candida parapsilosis = assay: Ratio of MIC for Candida parapsilosis to MIC for Candida parapsilosis in presence of 50% human serum; type: functional
Glucan synthase [29] = biological target: T1, Glucan synthase; assay: Inhibition of glucan synthase in Candida albicans ATCC 36082 in presence of 50% human serum
[30] = Inhibition of glucan synthase in Aspergillus fumigatus ATCC 13073 in presence of 50% human serum

T1 sequence (O13423 whole entry): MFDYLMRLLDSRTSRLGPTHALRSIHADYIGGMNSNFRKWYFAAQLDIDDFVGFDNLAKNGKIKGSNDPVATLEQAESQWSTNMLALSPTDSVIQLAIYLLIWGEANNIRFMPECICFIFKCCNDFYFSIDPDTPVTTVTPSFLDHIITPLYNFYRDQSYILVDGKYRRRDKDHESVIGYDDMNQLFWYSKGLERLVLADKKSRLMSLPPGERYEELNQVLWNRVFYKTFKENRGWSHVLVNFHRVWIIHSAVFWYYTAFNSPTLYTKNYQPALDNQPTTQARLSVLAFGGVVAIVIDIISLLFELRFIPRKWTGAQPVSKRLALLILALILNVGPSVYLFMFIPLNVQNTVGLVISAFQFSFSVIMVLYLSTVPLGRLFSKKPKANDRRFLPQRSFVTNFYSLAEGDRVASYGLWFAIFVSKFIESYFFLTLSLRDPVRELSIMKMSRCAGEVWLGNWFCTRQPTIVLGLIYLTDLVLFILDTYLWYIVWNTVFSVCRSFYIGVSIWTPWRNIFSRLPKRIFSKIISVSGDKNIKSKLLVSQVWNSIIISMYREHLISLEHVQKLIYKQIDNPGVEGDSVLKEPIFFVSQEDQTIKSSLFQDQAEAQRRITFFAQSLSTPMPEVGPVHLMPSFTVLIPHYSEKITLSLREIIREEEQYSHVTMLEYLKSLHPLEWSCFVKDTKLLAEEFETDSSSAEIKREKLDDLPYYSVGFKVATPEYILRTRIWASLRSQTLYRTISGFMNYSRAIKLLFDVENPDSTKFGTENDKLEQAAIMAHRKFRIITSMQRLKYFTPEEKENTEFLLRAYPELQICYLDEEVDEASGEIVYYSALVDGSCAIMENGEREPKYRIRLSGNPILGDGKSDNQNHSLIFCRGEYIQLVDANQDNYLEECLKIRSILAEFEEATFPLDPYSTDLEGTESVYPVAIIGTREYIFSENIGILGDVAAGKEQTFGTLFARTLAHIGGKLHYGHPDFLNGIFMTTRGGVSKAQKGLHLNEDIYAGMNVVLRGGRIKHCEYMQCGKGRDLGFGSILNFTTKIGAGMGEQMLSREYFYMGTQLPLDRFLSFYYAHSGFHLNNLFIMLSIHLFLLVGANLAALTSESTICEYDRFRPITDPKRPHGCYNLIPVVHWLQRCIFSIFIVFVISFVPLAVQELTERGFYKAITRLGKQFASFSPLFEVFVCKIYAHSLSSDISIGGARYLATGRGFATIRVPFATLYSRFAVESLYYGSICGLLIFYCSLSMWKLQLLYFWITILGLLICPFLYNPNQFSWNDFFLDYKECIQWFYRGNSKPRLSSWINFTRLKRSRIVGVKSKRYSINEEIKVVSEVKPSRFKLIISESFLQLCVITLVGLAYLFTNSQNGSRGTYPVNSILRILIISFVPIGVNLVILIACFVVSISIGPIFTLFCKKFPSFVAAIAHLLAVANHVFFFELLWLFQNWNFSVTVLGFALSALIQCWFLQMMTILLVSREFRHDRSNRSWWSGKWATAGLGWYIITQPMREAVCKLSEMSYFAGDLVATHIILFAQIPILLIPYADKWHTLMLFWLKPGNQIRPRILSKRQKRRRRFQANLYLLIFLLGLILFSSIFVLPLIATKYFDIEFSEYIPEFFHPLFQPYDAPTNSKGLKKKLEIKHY

Compound	IC50 (Glucan synthase [1]) [nM]	IC50 (Glucan synthase [2]) [nM]	IC50 [3] [ng/mL]	IC50 (Glucan synthase [4]) [nM]	Ratio (Aspergillus niger)	IC50 (Glucan synthase [5]) [nM]	IC50 [6] [ng/mL]	IC50 [7] [ng/mL]	IC50 [8] [ng/mL]	Ratio (Aspergillus flavus)	IC50 (Glucan synthase [9]) [nM]	IC50 [10] [ng/mL]	IC50 (Glucan synthase [11]) [nM]	Ratio (Aspergillus fumigatus)	IC50 [14] [ng/mL]	IC50 (Glucan synthase [15]) [nM]	Ratio (Aspergillus terreus)	Ratio (Pichia kudriavzevii)	IC50 [16] [ng/mL]	ED90 (Candida albicans [17]) [mg/kg]	other results
CCCCCOc1ccc(-c2ccc(-c3ccc(C(=O)N[C@H]4C[C@@H](O)[C@@H](O)NC(=O)[C@@H]5[C@@H](O)[C@@H](C)CN5C(=O)[C@H]([C@@H](C)O)NC(=O)[C@H]([C@H](O)[C@@H](O)c5ccc(O)cc5)NC(=O)[C@@H]5C[C@@H](O)CN5C(=O)[C@H]([C@@H](C)O)NC4=O)cc3)cc2)cc1 [ANIDULAFUNGIN] ({pTerphenylCO(4''-OnC5H11)}-[Orn(4R-OH,5R-OH)]T[Hyp][hTyr(3S-OH,4S-OH)]T[Pro(3S-OH,4S-Me)]; lactam 1-C)	0.877	78.1	21.4	65.5	32	21.7	1.9	28.1	0.29 (≈ 0.254 nM)	32	16.2	3.1	4.14	32	13.3 (≈ 11.7 nM)	21	16	32	77.4	1.17	IC50 (Glucan synthase [12]): 16.4 nM; IC50 (Glucan synthase [13]): 4.14 nM; ED99 (Candida albicans [17]): 1.36 mg/kg; IC50 [18]: 6.9 ng/mL; Ratio (Candida tropicalis): 128; IC50 (Glucan synthase [19]): 13.4 nM; IC50 [20]: 0.75 ng/mL (≈ 0.658 nM); IC50 [21]: 5.5 ng/mL; Ratio (Candida albicans [22]): 16; IC50 [23]: 11.9 ng/mL; IC50 (Glucan synthase [24]): 0.88 nM; Ratio (Nakaseomyces glabratus): 64; IC50 (Glucan synthase [25]): 15 nM; IC50 (Glucan synthase [26]): 62.7 nM; IC50 (Glucan synthase [27]): 16.3 nM; IC50 (Glucan synthase [28]): 25.8 nM; Ratio (Candida parapsilosis): 8
CC[C@H](C)C[C@H](C)CCCCCCCCC(=O)N[C@H]1C[C@@H](O)[C@@H](NCCN)NC(=O)[C@@H]2[C@@H](O)CCN2C(=O)[C@H]([C@H](O)CCN)NC(=O)[C@H]([C@H](O)[C@@H](O)c2ccc(O)cc2)NC(=O)[C@@H]2C[C@@H](O)CN2C(=O)[C@H]([C@@H](C)O)NC1=O [CASPOFUNGIN]	0.274	73.6	2.8	33.8	8	5.76	2.7	4.8	1.1 (≈ 1.01 nM)	8	0.823	3.6	1.19	11	2 (≈ 1.83 nM)	2.56	4	8	5.9	1.05	IC50 (Glucan synthase [12]): 1.9 nM; IC50 (Glucan synthase [13]): 1.21 nM; IC50 (Glucan synthase [29]): 7.96 nM; ED99 (Candida albicans [17]): 1.1 mg/kg; IC50 [18]: 3.2 ng/mL; Ratio (Candida tropicalis): 4; IC50 (Glucan synthase [19]): 24.7 nM; IC50 [20]: 1.6 ng/mL (≈ 1.46 nM); IC50 [21]: 1 ng/mL; Ratio (Candida albicans [22]): 2; IC50 [23]: 10.3 ng/mL; IC50 (Glucan synthase [24]): 0.302 nM; Ratio (Nakaseomyces glabratus): 4; IC50 (Glucan synthase [25]): 13.4 nM; IC50 [30]: 9.4 ng/mL; IC50 (Glucan synthase [26]): 4.85 nM; IC50 (Glucan synthase [27]): 1.92 nM; IC50 (Glucan synthase [28]): 5.69 nM; Ratio (Candida parapsilosis): 4
CCCCCOc1ccc(-c2cc(-c3ccc(C(=O)N[C@H]4C[C@@H](O)[C@@H](O)NC(=O)[C@@H]5[C@@H](O)[C@@H](C)CN5C(=O)[C@H]([C@H](O)CC(N)=O)NC(=O)[C@H]([C@H](O)[C@@H](O)c5ccc(O)c(OS(=O)(=O)O)c5)NC(=O)[C@@H]5C[C@@H](O)CN5C(=O)[C@H]([C@@H](C)O)NC4=O)cc3)no2)cc1 [MICAFUNGIN] (X1-[Orn(4R-OH,5R-OH)]T[Hyp][hTyr(3S-OH,4S-OH,3'-OSO3H)][Gln(3R-OH)][Pro(3S-OH,4S-Me)]; lactam 1-C)	14.2	70.6	4.7	39.8	133	71	6.2	7.6	2.2 (≈ 1.73 nM)	33	8.5	10.3	22.4	64	2 (≈ 1.57 nM)	18.7	32	133	7.5	1.97	IC50 (Glucan synthase [29]): 44.9 nM; ED99 (Candida albicans [17]): 3.71 mg/kg; IC50 [18]: 3.3 ng/mL; Ratio (Candida tropicalis): 128; IC50 (Glucan synthase [19]): 25.7 nM; IC50 [20]: 3.7 ng/mL (≈ 2.91 nM); IC50 [21]: 3.2 ng/mL; Ratio (Candida albicans [22]): 64; IC50 [23]: 23.2 ng/mL; Ratio (Nakaseomyces glabratus): 64; IC50 (Glucan synthase [25]): 21.2 nM; IC50 [30]: 9.8 ng/mL; IC50 (Glucan synthase [26]): 24.7 nM; IC50 (Glucan synthase [27]): 39.4 nM; Ratio (Candida parapsilosis): 8
